# Measurements: ChEMBL document CHEMBL5126548, “Small-molecule MDM2 inhibitors in clinical trials for cancer therapy” (Eur J Med Chem, 2022)
# Tests used:
# [1] = biological target: Tumour suppressor p53/oncoprotein Mdm2 (Homo sapiens, UniProt Q00987); test: Inhibition of recombinant human MDM2/p53 interaction; type: protein assay
# [2] = animal or person; conditions: Homo sapiens, MHM, po, read-out: TGI
# Description: Antitumor activity against human MHM xenografted Balb/c mouse assessed as tumor growth inhibition at 50 mg/kg,po administered daily by caliper method
# [3] = tested on: SJSA-1; test: animal or person; conditions: Mus musculus, SJSA-1, po, read-out: TGI
# Description: Antitumor activity against human SJSA-1 xenografted Balb/c mouse assessed as tumor growth inhibition at 50 mg/kg,po administered daily by caliper method
# [4] = AUC in CB17SCID mouse at 125 mg/kg, po and measured upto 24 hrs; type: ADME, organism-based; parameters: dose 125 mg/kg, time < 24 hrs, route po; conditions: in vivo
# [5] = Cmax in CB17SCID mouse at 125 mg/kg, po and measured upto 24 hrs; type: ADME, organism-based; parameters: dose 125 mg/kg, time < 24 hrs, route po; conditions: in vivo
# [6] = Oral bioavailability in Beagle dog at 2 mg/kg by LC-MS/MS method; type: ADME, organism-based, Canis lupus familiaris; conditions: in vivo
# [7] = Oral bioavailability in cynomolgus monkey at 2 mg/kg by LC-MS/MS method; type: ADME, organism-based, Macaca fascicularis; conditions: in vivo
# [8] = Oral bioavailability in CD-1 mouse at 5 mg/kg by LC-MS/MS method; type: ADME, organism-based; conditions: in vivo
# [9] = Oral bioavailability in Sprague-Dawley rat at 2 mg/kg by LC-MS/MS method; type: ADME, organism-based; conditions: in vivo
# [10] = Antiproliferative activity against human LA-N-5 cells harboring wildtype TP53 assessed as reduction in cell viability and measured upto 72 hrs by XTT assay; type: functional, cell-based; conditions: LA-N-5, 72 h
# [11] = tested on: IMR-32; test: Antiproliferative activity against human IMR-32 cells harboring wildtype TP53 assessed as reduction in cell viability and measured upto 72 hrs by XTT assay; type: functional, cell-based; conditions: IMR-32, 72 h
# [12] = tested on: SK-N-SH; test: Antiproliferative activity against human SK-N-SH cells harboring wildtype TP53 assessed as reduction in cell viability and measured upto 72 hrs by XTT assay; type: functional, cell-based
# [13] = tested on: SH-SY5Y; test: Antiproliferative activity against human SH-SY5Y cells harboring wildtype TP53 assessed as reduction in cell viability and measured upto 72 hrs by XTT assay; type: functional, cell-based
# [14] = Antiproliferative activity against human Kelly cells harboring TP53 mutant assessed as reduction in cell viability and measured upto 72 hrs by XTT assay; type: functional, cell-based
# [15] = tested on: IMR-5; test: Antiproliferative activity against human IMR-5 cells harboring wildtype TP53 assessed as reduction in cell viability and measured upto 72 hrs by XTT assay; type: functional, cell-based; conditions: IMR-5, 72 h
# Sequence of Tumour suppressor p53/oncoprotein Mdm2 (P04637 whole entry): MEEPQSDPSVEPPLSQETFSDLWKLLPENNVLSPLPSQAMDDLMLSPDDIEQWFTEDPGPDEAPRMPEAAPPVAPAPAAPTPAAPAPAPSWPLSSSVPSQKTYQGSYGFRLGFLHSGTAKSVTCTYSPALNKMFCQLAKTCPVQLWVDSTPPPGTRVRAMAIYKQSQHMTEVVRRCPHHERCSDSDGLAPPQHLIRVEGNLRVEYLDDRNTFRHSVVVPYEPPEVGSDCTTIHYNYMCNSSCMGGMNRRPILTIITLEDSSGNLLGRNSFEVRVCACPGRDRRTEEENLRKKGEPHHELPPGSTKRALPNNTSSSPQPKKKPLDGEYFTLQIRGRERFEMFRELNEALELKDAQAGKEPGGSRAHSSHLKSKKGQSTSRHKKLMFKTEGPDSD
# Sequence of Tumour suppressor p53/oncoprotein Mdm2 (Q00987 whole entry): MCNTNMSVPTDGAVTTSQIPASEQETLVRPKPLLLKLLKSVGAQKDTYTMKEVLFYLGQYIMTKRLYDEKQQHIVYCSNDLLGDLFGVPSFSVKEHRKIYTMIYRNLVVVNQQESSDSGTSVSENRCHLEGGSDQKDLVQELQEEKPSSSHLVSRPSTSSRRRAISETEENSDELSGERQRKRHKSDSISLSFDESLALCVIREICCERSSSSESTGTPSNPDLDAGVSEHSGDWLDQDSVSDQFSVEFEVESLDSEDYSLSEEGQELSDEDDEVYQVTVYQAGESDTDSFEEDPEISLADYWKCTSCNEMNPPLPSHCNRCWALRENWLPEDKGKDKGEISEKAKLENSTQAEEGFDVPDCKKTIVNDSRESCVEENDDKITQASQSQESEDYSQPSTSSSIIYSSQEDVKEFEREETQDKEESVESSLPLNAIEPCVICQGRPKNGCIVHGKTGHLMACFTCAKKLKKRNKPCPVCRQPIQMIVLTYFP
smiles,measurement,setting,value
COc1ccccc1-n1nc2c(c1C(C)C)[C@H](c1ccc(Cl)cc1C)N(c1cc(Cl)cc(OCCN(C)C)c1)C2=O,IC50,[1],0.13 nM
CCOc1cc(C(C)(C)C)ccc1C1=N[C@@](C)(c2ccc(Cl)cc2)[C@@](C)(c2ccc(Cl)cc2)N1C(=O)N1CCN(CCCS(C)(=O)=O)CC1 [RO-5045337],inhibition in vivo at 50 mg/kg,[2],69%
same,inhibition in vivo at 50 mg/kg,[3],74%
CCC[C@H]1N(C(=O)c2ncccc2C(F)(F)F)CCC[C@@]1(Oc1csc(C(F)(F)F)c1)C(=O)N1CCC(O)(c2ccccc2O[C@H](C)CCC2(C(=O)O)CCC2)CC1,AUC at 24 h,[4],200 µM·h
same,Cmax,[5],40 µM
CC(C)[C@@H](CS(=O)(=O)C(C)C)N1C(=O)[C@@](C)(CC(=O)O)C[C@H](c2cccc(Cl)c2)[C@H]1c1ccc(Cl)cc1 [NAVTEMADLIN],bioavailability,[6],18%
same,bioavailability,[7],> 44%
same,bioavailability,[8],> 43%
same,bioavailability,[9],> 42%
CC1(C)CCC2(CC1)N[C@H](C(=O)N[C@@H]1CC[C@@H](C(N)=O)OC1)[C@H](c1ccnc(Cl)c1F)[C@]21C(=O)Nc2cc(Cl)ccc21,IC50,[10],44.1 nM
same,IC50,[11],56.2 nM
same,IC50,[12],21.9 nM
same,IC50,[13],17.7 nM
same,IC50,[14],> 2000 nM
same,IC50,[15],25.7 nM
